Reference: US20100137313A1 (ASTRAZENECA AB, priority 2008, published 2010)

Biological target: S. pneumoniae Topoisomerase IV ATPase (ParE) (Streptococcus pneumoniae serotype 4, UniProt Q59961)
Test: S. pneumoniae Topoisomerase IV ATPase inhibition
Type: biochemical
Conditions: values marked * are an average of two or more data points, read-out: % Inh (13 μM) of S. pneumoniae Topoisomerase IV ATPase
In short: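 Phosphate release by ParE ATPase from S. pneumoniae read colorimetrically (malachite green, 650 nm), enzyme 1.25 nM, ATP 160 μM, salmon sperm DNA present, buffer 20 mM Tris pH 8.0 with 8 mM MgCl2. IC50 over 10 compound concentrations, EDTA (20 μM) and DMSO controls defining inhibition range.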

Sequence of S. pneumoniae Topoisomerase IV ATPase (ParE) (Q59961 whole entry): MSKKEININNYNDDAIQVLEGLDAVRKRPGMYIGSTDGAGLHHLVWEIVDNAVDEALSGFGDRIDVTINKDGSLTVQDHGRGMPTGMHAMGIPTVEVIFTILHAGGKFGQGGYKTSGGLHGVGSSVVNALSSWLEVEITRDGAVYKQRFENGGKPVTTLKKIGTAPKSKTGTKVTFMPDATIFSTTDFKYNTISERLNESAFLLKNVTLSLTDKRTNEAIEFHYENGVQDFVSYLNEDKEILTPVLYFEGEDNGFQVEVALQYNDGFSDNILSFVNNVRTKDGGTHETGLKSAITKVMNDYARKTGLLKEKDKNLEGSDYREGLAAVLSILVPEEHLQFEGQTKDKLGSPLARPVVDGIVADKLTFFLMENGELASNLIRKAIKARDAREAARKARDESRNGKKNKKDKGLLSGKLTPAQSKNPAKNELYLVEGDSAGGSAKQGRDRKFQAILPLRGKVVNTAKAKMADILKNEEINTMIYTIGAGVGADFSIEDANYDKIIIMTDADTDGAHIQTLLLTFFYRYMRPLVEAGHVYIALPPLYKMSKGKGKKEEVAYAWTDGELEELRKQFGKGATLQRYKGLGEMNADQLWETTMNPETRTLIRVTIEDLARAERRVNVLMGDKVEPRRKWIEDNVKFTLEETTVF

With COCCNc1nc(Nc2ccc(F)c(Cl)c2)ncc1-c1cncnc1 [Example 50, N^2-(3-chloro-4-fluorophenyl)-N^4-(2-methoxyethyl)-5-pyrimidin-5-ylpyrimidine-2,4-diamine] as the molecule, how does the inhibition at 13 µM read?
The inhibition at 13 µM was 77.8%.

With O=C(O)c1cncc(-c2cnc(Nc3ccc(F)c(Cl)c3)nc2NCCCN2CCS(=O)(=O)CC2)c1 [Example 232, 5-{2-(3-Chloro-4-fluoro-phenylamino)-4-[3-(1,1-dioxo-1λ^6-thiomorpholin-4-yl)-propylamino]-pyrimidin-5-yl}-nicotinic acid] as the molecule, how does the inhibition at 13 µM read?
Its inhibition at 13 µM is 81%.

Which inhibition at 13 µM does the source give for Fc1ccc(Nc2ncc(-c3cncnc3)c(-n3cnc(Cl)c3Cl)n2)cc1Cl [Example 72, N-(3-chloro-4-fluorophenyl)-4-(4,5-dichloro-1H-imidazol-1-yl)-5,5′-bipyrimidin-2-amine] here?
The inhibition at 13 µM was 52.6%.

With O=C(O)CS(=O)(=O)c1cccc(-c2cnc(Nc3ccc(F)c(Cl)c3)nc2-n2ccc(C(F)(F)F)n2)c1 [Example 1099, 2-(3-(2-(3-chloro-4-fluorophenylamino)-4-(3-(trifluoromethyl)-1H-pyrazol-1-yl)pyrimidin-5yl)phenylsulfonyl)acetic acid] as the molecule, how does the inhibition at 13 µM read?
The inhibition at 13 µM was 100%.

Fc1ccc(Nc2ncc(-c3cncnc3)c(NCc3ccccn3)n2)cc1Cl [Example 38, N^2-(3-chloro-4-fluorophenyl)-N^4-(pyridin-2-ylmethyl)-5-pyrimidin-5-ylpyrimidine-2,4-diamine] was tested. Which inhibition at 13 µM did it give?
The inhibition at 13 µM was 62.3%.

Which inhibition at 13 µM does the source give for CON(C)C(=O)c1cccc(-c2cnc(Nc3ccc(F)c(Cl)c3)nc2-n2ccc(C(F)(F)F)n2)c1 [Example 1149, 3-(2-(3-chloro-4-fluorophenylamino)-4-(3-(trifluoromethyl)-1H-pyrazol-1-yl)pyrimidin-5-yl)-N-methoxy-N-methylbenzamide] here?
The inhibition at 13 µM was 100%.

With O=C(O)c1cncc(-c2cnc(Nc3ccc(F)c(Cl)c3)nc2-n2cc(Cl)cn2)c1 [Example 309, 5-{2-[(3-chloro-4-fluorophenyl)amino]-4-(4-chloro-1H-pyrazol-1-yl)pyrimidin-5-yl}pyridine-3-carboxylic acid] as the molecule, how does the inhibition at 13 µM read?
The inhibition at 13 µM was 69.4%.

Cc1cc(C)n(-c2nc(Nc3ccc(F)c(Cl)c3)ncc2-c2cncc(C(=O)O)c2)n1 [Example 316, 5-{2-[(3-chloro-4-fluorophenyl)amino]-4-(3,5-dimethyl-1H-pyrazol-1-yl)pyrimidin-5-yl}pyridine-3-carboxylic acid] was tested. Which inhibition at 13 µM did it give?
The inhibition at 13 µM was 80%.

Which inhibition at 13 µM does the source give for Cc1cc(C(F)F)n(-c2nc(Nc3ccc(F)c(Cl)c3)ncc2-c2cncc(C(=O)O)c2)n1 [Example 531, 5-{2-[(3-chloro-4-fluorophenyl)amino]-4-[5-(difluoromethyl)-3-methyl-1H-pyrazol-1-yl]pyrimidin-5-yl}pyridine-3-carboxylic acid] here?
Its inhibition at 13 µM is 100%.

For COc1cc(Nc2ncc(-c3cnc(OC)c(C(=O)O)c3)c(-n3nc(C(F)(F)F)cc3C)n2)cc(OC)c1 [Example 677, 5-{2-[(3,5-dimethoxyphenyl)amino]-4-[5-methyl-3-(trifluoromethyl)-1H-pyrazol-1-yl]pyrimidin-5-yl}-2-methoxypyridine-3-carboxylic acid], which inhibition at 13 µM is on record?
Its inhibition at 13 µM is 100%.

For CNC(=O)/C=C/c1cccc(-c2cnc(Nc3ccc(F)c(Cl)c3)nc2N2CCOCC2)c1 [Example 375, (E)-3-(3-(2-(3-chloro-4-fluorophenylamino)-4-morpholinopyrimidin-5-yl)phenyl)-1H-methylacrylamide], which inhibition at 13 µM is on record?
The inhibition at 13 µM was 75.9%.

Fc1ccc(Nc2ncc(-c3cncnc3)c(N3CCC3)n2)cc1Cl [Example 67, 4-(azetidin-1-yl)-N-(3-chloro-4-fluorophenyl)-5-pyrimidin-5-ylpyrimidin-2-amine] was tested. Which inhibition at 13 µM did it give?
Its inhibition at 13 µM is 53.4%.

How did the inhibition at 13 µM turn out when Cc1cc(-c2nccs2)nn1-c1nc(Nc2ccc(F)c(Cl)c2)ncc1-c1cncc(C(N)=O)c1 [Example 537, 5-{2-[(3-chloro-4-fluorophenyl)amino]-4-[5-methyl-3-(1,3-thiazol-2-yl)-1H-pyrazol-1-yl]pyrimidin-5-yl}pyridine-3-carboxamide] was run?
The inhibition at 13 µM was 100%.
